{"source": "patent US20120107391A1", "about": "“THERAPY OF PLATINUM-RESISTANT CANCER” (Genentech, Inc., priority 2004, published 2012)", "key": {"[1]": {"system": "platinum-resistant ovarian cancer", "conditions": "patients with platinum-resistant disease; cited from earlier work"}, "[2]": {"system": "advanced ovarian cancer", "conditions": "one of 3 subjects with advanced ovarian cancer; cited from earlier work"}, "[3]": {"conditions": "cited from earlier work"}, "[4]": {"system": "Akt activation in MCF7 breast cancer cells", "conditions": "cited from earlier work"}, "[5]": {"system": "HRG stimulation of p180 tyrosine phosphorylation in MCF7 cells", "experiment": "Inhibition of HRG-stimulated p180 tyrosine phosphorylation in MCF7 cells (antiphosphotyrosine immunoblot, reflectance densitometry)", "format": "cell-based, human", "conditions": "MCF7, 0.2 nM rHRGβ1", "method": "MCF7 cells were seeded in 24-well plates (1×10^5 cells/well) and grown to about 85% confluency for two days.\nMCF7 cells were plated in 24-well plates and monoclonal antibodies to HER2 were added to each well and incubated for 30 minutes at room temperature; then rHRGβ1177-244 was added to each well to a final concentration of 0.2 nM, and the incubation was continued for 8 minutes. Media was carefully aspirated from each well, and reactions were stopped by the addition of 100 μl of SDS sample buffer (5% SDS, 25 mM DTT, and 25 mM Tris-HCl, pH 6.8). Each sample (25 μl) was electrophoresed on a 4-12% gradient gel (Novex) and then electrophoretically transferred to polyvinylidene difluoride membrane. Antiphosphotyrosine (4G10, from UBI, used at 1 μg/ml) immunoblots were developed, and the intensity of the predominant reactive band at Mr ˜180,000 was quantified by reflectance densitometry, as described previously (Holmes et al. Science 256:1205-1210 (1992); Sliwkowski et al. J. Biol. Chem. 269:14661-14665 (1994))."}, "[6]": {"system": "mitogen-activated protein kinase (MAPK) activation in MCF7 cells", "experiment": "EGF, TGF-α or HRG mediated activation of MAPK in MCF7 cells (Western blot)", "format": "cell-based, human", "conditions": "200 nM antibody, 1 nM EGF, 1 nM TGF-α or 0.2 nM HRG", "protocol": "Many growth factor receptors signal through the mitogen-activated protein kinase (MAPK) pathway. These dual specificity kinases are one of the key endpoints in signal transduction pathways that ultimately triggers cancer cells to divide. […] MCF7 cells (10^5 cells/well) were plated in serum containing media in 12-well cell culture plates. The next day, the cell media was removed and fresh media containing 0.1% serum was added to each well. This procedure was then repeated the following day and prior to assay the media was replaced with serum-free binding buffer (Jones et al. J. Biol. Chem. 273:11667-74 (1998); and Schaefer et al. J. Biol. Chem. 274:859-66 (1999)). […] Cells were then treated with 1 nM EGF, 1 nM TGF-α or 0.2 nM HRG for 15 minutes. The reaction was stopped by aspirating the cell medium and then adding 0.2 mL SDS-PAGE sample buffer containing 1% DTT. MAPK activation was assessed by Western blotting using an anti-active MAPK antibody (Promega) as described previously (Jones et al. J. Biol. Chem. 273:11667-74 (1998))."}, "[7]": {"system": "SK-BR-3 cells", "experiment": "Growth inhibition of SK-BR-3 cells, crystal violet staining, 4 days, with or without rHRGβ1", "format": "cell-based, human", "conditions": "FIG. 4B"}, "[8]": {"system": "MDA-MB-175 cells", "experiment": "Growth inhibition of MDA-MB-175 cells, crystal violet staining, 4 days", "format": "cell-based", "conditions": "10 μg/mL", "protocol": "Experiment was carried out in medium containing 1% serum. HER2 antibodies or medium alone were added and the cells were incubated for 2 hours at 37° C. Subsequently rHRGβ1 (1 nM) or medium alone were added and the cells were incubated for 4 days. Monolayers were washed and stained/fixed with 0.5% crystal violet. To determine cell proliferation the absorbance was measured at 540 nm.\nHER2 levels in MDA-MB-175 cells are 4-6 times higher than the level found in normal breast epithelial cells and the HER2-HER4 receptor is constitutively tyrosine phosphorylated in MDA-MB-175 cells. […] Inhibition of cell proliferation by 4D5 is dependent on the HER2 expression level (Lewis et al. Cancer Immunol. Immunother. 37:255-263 (1993)). […] However this effect could be overcome by exogenous HRG."}}, "note": "Counter-ions that a name gives are not always drawn.", "data": [{"compound": "CC[C@@]1(O)C(=O)OCc2c1cc1n(c2=O)Cc2cc3c(CN(C)C)c(O)ccc3nc2-1", "note": "[Topotecan]", "values": [{"measurement": "partial response rate", "setting": "[1]", "result": 6, "unit": "%"}]}, {"compound": "Pertuzumab: Antibody with light and heavy chain SEQ ID NOS. 16 and 17; humanized version 574 variable domains with human IgG1 constant region", "values": [{"measurement": "response", "setting": "[2]", "result": "durable partial response"}]}, {"compound": "Nc1ccn([C@@H]2O[C@H](CO)[C@@H](O)C2(F)F)c(=O)n1", "note": "[Gemcitabine, 2′-deoxy-2′,2′-difluorocytidine monohydrochloride (b-isomer)]", "values": [{"measurement": "partial response rate", "setting": "[1]", "result": 16, "unit": "%"}, {"measurement": "toxicity when combined with other chemotherapeutic agents", "setting": "[3]; combined with taxanes, anthracyclines, platinums", "result": "without any significant increases or unexpected toxicities"}, {"measurement": "combined incidence of nausea and vomiting", "setting": "[3]; single agent", "result": 69, "unit": "%"}, {"measurement": "incidence of anemia", "setting": "[3]; single agent", "result": 68, "unit": "%"}, {"measurement": "incidence of diarrhea", "setting": "[3]; single agent", "result": 19, "unit": "%"}, {"measurement": "incidence of neutropenia", "setting": "[3]; single agent", "result": 63, "unit": "%"}, {"measurement": "incidence of rash", "setting": "[3]; single agent", "result": 30, "unit": "%"}, {"measurement": "nausea and vomiting, grade III incidence", "setting": "[3]; single agent", "result": 13, "unit": "%"}, {"measurement": "nausea and vomiting, grade IV incidence", "setting": "[3]; single agent", "result": 1, "unit": "%"}, {"measurement": "rash, grade III incidence", "setting": "[3]; single agent", "result": 1, "unit": "%"}]}, {"compound": "2C4: Murine monoclonal antibody binding the extracellular domain of HER2, ATCC HB-12697 [Mutant 2C4]", "values": [{"measurement": "basal level of Akt activation", "setting": "[4]; MCF7, absence of heregulin addition", "result": "further reduced"}, {"measurement": "heregulin-mediated Akt activation", "setting": "[4]; MCF7, Agus et al. 2002", "result": "inhibits"}, {"measurement": "generation of HRG-induced tyrosine phosphorylation signal at Mr 180,000", "setting": "[5]", "result": "significantly inhibited"}, {"measurement": "block of EGF, TGF-α and HRG mediated activation of MAPK", "setting": "[6]", "result": "significantly blocks"}, {"measurement": "inhibitory effect on HER2 overexpressing cell line SK-BR-3", "setting": "[7]", "result": "no inhibitory effect"}, {"measurement": "growth inhibitory effect on MDA-MB-175 cells", "setting": "[8]", "result": "strong growth inhibitory effect"}]}]}
